# What was measured:
# Test in all cases: Test B pre-/postemergence plant response
# Type in all cases: in vivo
# [1] = tested on: Italian ryegrass (Lolium multiflorum)
# Method in brief: (§1)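 Preemergence and postemergence (plants 2-18 cm, 1- to 4-leaf stage) applications used test chemicals in a non-phytotoxic solvent with surfactant. Plants were held in a greenhouse 13 to 15 days, then rated visually against controls on a 0-100 scale (0 no effect, 100 complete control).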
# [2] = tested on: Russian thistle (Salsola iberica); settings: Preemergence; for Russian Thistle plant response rating: scale 0 to 100
# Method in brief: as §1
# [3] = tested on: catchweed bedstraw (Galium aparine); settings: Preemergence; for Galium plant response rating: scale 0 to 100
# Method in brief: as §1
# [4] = tested on: cocklebur (Xanthium strumarium); settings: for Cocklebur plant response rating: 8 g ai/ha
# Method in brief: as §1
# [5] = tested on: common ragweed (Ambrosia elation); settings: for Ragweed plant response rating: postemergence, 0-100 scale
# Method in brief: as §1
# corn (Zea mays) = tested on: corn (Zea mays)
# Method in brief: as §1
# [6] = tested on: eastern black (E.B.) nightshade (Solanum ptycanthum); settings: Preemergence; for Nightshade, E. B. plant response rating: scale 0 to 100
# Method in brief: as §1
# [7] = tested on: green foxtail (Setaria viridis)
# Method in brief: as §1
# kochia (Kochia scoparia) = settings: for Kochia plant response rating: postemergence, 0-100 scale; for Plant response rating, Kochia: Postemergence
# Method in brief: as §1
# [8] = tested on: lambsquarters (Chenopodium album); settings: for Lambsquarters plant response rating: postemergence, 0-100 scale; for Plant response rating, Lambsquarters: Postemergence
# Method in brief: as §1
# [9] = tested on: morningglory (Ipomoea coccinea)
# Method in brief: as §1
# [10] = tested on: surinam grass (Brachiaria decumbens)
# Method in brief: as §1
# wild oat (Avena fatua) = tested on: wild oat (Avena fatua)
# Method in brief: as §1
# [11] = tested on: yellow nutsedge (Cyperus esculentus)
# Method in brief: as §1
# [12] = 8 g ai/ha, postemergence, 0-100 scale
# [13] = 16 g ai/ha, postemergence, 0-100 scale
# [14] = Postemergence, 31 g ai/ha, scale 0 to 100
# [15] = Postemergence, 62 g ai/ha, scale 0 to 100, 0 no effect, 100 complete control
# [16] = Preemergence, 31 g ai/ha, scale 0 to 100 (0 no effect, 100 complete control)
# [17] = Preemergence, 62 g ai/ha, 0 to 100 scale, 0 no effect, 100 complete control
# [18] = Preemergence, 8 g ai/ha, scale 0 to 100
# [19] = Preemergence, 16 g ai/ha, scale 0 to 100
# [20] = 31 g ai/ha, scale 0 to 100 (0 no effect, 100 complete control)
# [21] = 62 g ai/ha, 0 to 100 scale, 0 no effect, 100 complete control
# [22] = Postemergence, 16 g ai/ha, scale 0 to 100
# [23] = 62 g ai/ha, scale 0 to 100, 0 no effect, 100 complete control
compound,measurement,setting,value
CCc1cc(-c2ccc(C(F)(F)F)cc2)nn1-c1c(O)cnn(CC)c1=O [Compound 67],"Ryegrass, Italian plant response rating",[1]; [12],100
same,"Ryegrass, Italian plant response rating",[1]; [13],100
same,"Plant response rating, Ryegrass, Italian",[1]; [14],100
same,"Plant response rating, Ryegrass, Italian",[1]; [15],100
same,"Plant response rating, Ryegrass, Italian",[1]; [16],100
same,"Plant response rating, Ryegrass, Italian",[1]; [17],100
same,"Ryegrass, Italian plant response rating",[1]; [18],100
same,"Ryegrass, Italian plant response rating",[1]; [19],100
same,"Plant response rating, Russian Thistle",[2]; [20],0
same,"Plant response rating, Russian Thistle",[2]; [21],0
same,Russian Thistle plant response rating,[2]; 8 g ai/ha,0
same,Russian Thistle plant response rating,[2]; 16 g ai/ha,0
same,"Plant response rating, Galium",[3]; [20],0
same,"Plant response rating, Galium",[3]; [21],0
same,Galium plant response rating,[3]; 8 g ai/ha,0
same,Galium plant response rating,[3]; 16 g ai/ha,0
same,Cocklebur plant response rating,"[4]; postemergence, 0-100 scale",0
same,"Plant response rating, Cocklebur",[4]; [22],0
same,"Plant response rating, Cocklebur",[4]; [14],0
same,"Plant response rating, Cocklebur",[4]; [15],0
same,"Plant response rating, Cocklebur","[4]; Preemergence, 16 g ai/ha, scale 0 to 100 (0 no effect, 100 complete control)",0
same,"Plant response rating, Cocklebur",[4]; [16],0
same,"Plant response rating, Cocklebur",[4]; [17],0
same,Cocklebur plant response rating,"[4]; Preemergence, scale 0 to 100",0
same,Ragweed plant response rating,[5]; 8 g ai/ha,0
same,Ragweed plant response rating,[5]; 16 g ai/ha,0
same,"Plant response rating, Ragweed",[5]; [14],0
same,"Plant response rating, Ragweed",[5]; [15],0
same,"Plant response rating, Ragweed",[5]; [17],0
same,Corn plant response rating,corn (Zea mays); [12],75
same,"Plant response rating, Corn",corn (Zea mays); [22],90
same,"Plant response rating, Corn",corn (Zea mays); [14],100
same,"Plant response rating, Corn",corn (Zea mays); [15],100
same,"Plant response rating, Corn",corn (Zea mays); [16],100
same,"Plant response rating, Corn",corn (Zea mays); [17],100
same,Corn plant response rating,corn (Zea mays); [18],60
same,Corn plant response rating,corn (Zea mays); [19],98
same,"Plant response rating, Nightshade, E. B.",[6]; [20],0
same,"Plant response rating, Nightshade, E. B.",[6]; [21],0
same,"Nightshade, E. B. plant response rating",[6]; 8 g ai/ha,0
same,"Nightshade, E. B. plant response rating",[6]; 16 g ai/ha,0
same,"Foxtail, Green plant response rating",[7]; [12],65
same,"Plant response rating, Foxtail, Green",[7]; [22],70
same,"Plant response rating, Foxtail, Green",[7]; [14],98
same,"Plant response rating, Foxtail, Green",[7]; [15],100
same,"Plant response rating, Foxtail, Green",[7]; [16],100
same,"Plant response rating, Foxtail, Green",[7]; [17],100
same,"Foxtail, Green plant response rating",[7]; [18],100
same,"Foxtail, Green plant response rating",[7]; [19],100
same,Kochia plant response rating,kochia (Kochia scoparia); 8 g ai/ha,0
same,Kochia plant response rating,kochia (Kochia scoparia); 16 g ai/ha,0
same,"Plant response rating, Kochia","kochia (Kochia scoparia); 31 g ai/ha, scale 0 to 100",0
same,"Plant response rating, Kochia",kochia (Kochia scoparia); [23],0
same,Lambsquarters plant response rating,[8]; 8 g ai/ha,0
same,Lambsquarters plant response rating,[8]; 16 g ai/ha,0
same,"Plant response rating, Lambsquarters","[8]; 31 g ai/ha, scale 0 to 100",0
same,"Plant response rating, Lambsquarters",[8]; [23],0
same,Morningglory plant response rating,[9]; [12],0
same,Morningglory plant response rating,[9]; [13],0
same,"Plant response rating, Morningglory",[9]; [14],0
same,"Plant response rating, Morningglory",[9]; [15],0
same,"Plant response rating, Morningglory",[9]; [16],0
same,"Plant response rating, Morningglory",[9]; [17],0
same,Morningglory plant response rating,[9]; [18],0
same,Morningglory plant response rating,[9]; [19],0
same,Surinam Grass plant response rating,[10]; [12],70
same,Surinam Grass plant response rating,[10]; [13],85
same,"Plant response rating, Surinam Grass",[10]; [14],100
same,"Plant response rating, Surinam Grass",[10]; [15],100
same,"Plant response rating, Surinam Grass",[10]; [16],0
same,"Plant response rating, Surinam Grass",[10]; [17],55
same,Surinam Grass plant response rating,[10]; [18],0
same,Surinam Grass plant response rating,[10]; [19],0
same,"Oat, Wild plant response rating",wild oat (Avena fatua); [12],100
same,"Oat, Wild plant response rating",wild oat (Avena fatua); [13],100
same,"Plant response rating, Oat, Wild",wild oat (Avena fatua); [14],100
same,"Plant response rating, Oat, Wild",wild oat (Avena fatua); [15],100
same,"Plant response rating, Oat, Wild",wild oat (Avena fatua); [16],95
same,"Plant response rating, Oat, Wild",wild oat (Avena fatua); [17],100
same,"Oat, Wild plant response rating",wild oat (Avena fatua); [18],90
same,"Oat, Wild plant response rating",wild oat (Avena fatua); [19],95
same,"Nutsedge, Yellow plant response rating",[11]; [12],0
same,"Nutsedge, Yellow plant response rating",[11]; [13],0
same,"Plant response rating, Nutsedge, Yellow",[11]; [14],0
same,"Plant response rating, Nutsedge, Yellow",[11]; [15],0
same,"Plant response rating, Nutsedge, Yellow",[11]; [16],0
same,"Plant response rating, Nutsedge, Yellow",[11]; [17],0
same,"Nutsedge, Yellow plant response rating",[11]; [18],0
same,"Nutsedge, Yellow plant response rating",[11]; [19],0
